Results reported in ChEMBL document CHEMBL1287665, “Design, synthesis and inhibitory effect of pentapeptidyl chloromethyl ketones on proteinase K” (Bioorg Med Chem, 2010).
The source made the active and inactive calls.

Columns and labels:
Conditions in all cases: Parengyodontium album
[1] = biological target: Proteinase K (Engyodontium album) (UniProt P06873); test: Inhibition of Engyodontium album proteinase K proteolytic activity in human HeLa cell lysate using beta-actin primer/probes of TaqMan gene expression Cells-to-CT kit at 0.10 mM after 60 mins by qRT-PCR analysis; type: cell-free
[2] = biological target: Proteinase K (Engyodontium album) (UniProt P06873); test: Ratio of compound to MeO-Suc-AAAPV-CH2Cl for inhibition of Engyodontium album proteinase K proteolytic activity assessed as concentration required to obtain cycle threshold 26 using TaqMan gene expression Cells-to-CT kit after 60 mins by RT-PCR analysis
[3] = biological target: Proteinase K (Engyodontium album) (UniProt P06873); test: Inhibition of Engyodontium album proteinase K proteolytic activity assessed as concentration required to obtain cycle threshold 26 using TaqMan gene expression Cells-to-CT kit after 60 mins by qRT-PCR analysis
[4] = biological target: Proteinase K (Engyodontium album) (UniProt P06873); test: Inhibition of Engyodontium album proteinase K proteolytic activity assessed as digestion of bovine serum albumin at 0.25 mM after 10 mins using coomassie blue staining by protein gel analysis
[5] = biological target: Proteinase K (Engyodontium album) (UniProt P06873); test: Inhibition of Engyodontium album proteinase K proteolytic activity in human HeLa cell lysate using beta-actin primer/probes of TaqMan gene expression Cells-to-CT kit at 0.5 mM after 60 mins by qRT-PCR analysis; type: cell-free
[6] = biological target: Proteinase K (Engyodontium album) (UniProt P06873); test: Inhibition of Engyodontium album proteinase K proteolytic activity assessed as digestion of bovine serum albumin at 0.75 mM after 10 mins using coomassie blue staining by protein gel analysis

Chain of Proteinase K (Engyodontium album) (P06873 whole entry): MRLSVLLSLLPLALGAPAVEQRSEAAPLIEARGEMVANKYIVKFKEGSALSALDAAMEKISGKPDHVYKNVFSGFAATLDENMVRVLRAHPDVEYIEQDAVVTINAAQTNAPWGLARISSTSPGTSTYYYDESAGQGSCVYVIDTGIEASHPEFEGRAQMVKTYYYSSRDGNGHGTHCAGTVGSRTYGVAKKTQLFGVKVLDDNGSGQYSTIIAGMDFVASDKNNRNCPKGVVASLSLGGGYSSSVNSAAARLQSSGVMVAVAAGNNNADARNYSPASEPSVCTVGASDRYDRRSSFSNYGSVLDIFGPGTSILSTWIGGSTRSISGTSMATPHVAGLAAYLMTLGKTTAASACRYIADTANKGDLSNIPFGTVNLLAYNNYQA

inhibition [1]	Ratio [2]	Activity [3] [mM]	inhibition [4]	inhibition [5]	inhibition [6]	Compound
Active	7.5	0.1	Active			COC(=O)CCC(=O)N[C@@H](C)C(=O)N[C@H](C)C(=O)N[C@@H](C)C(=O)N1CCC[C@H]1C(=O)N[C@H](Cc1ccccc1)C(=O)CCl
				Active	inactive	COC(=O)CCC(=O)N[C@@H](C)C(=O)N[C@H](C)C(=O)N[C@@H](C)C(=O)N1CCC[C@H]1C(=O)N[C@@H](C(=O)CCl)C(C)C
